Key:
[1] = molecular target: T1, N-type calcium channel (NTCC) (Homo sapiens, UniProt Q00975); experiment: FLIPR calcium mobilization assay for N-type calcium channel; format: cell-based; details: calcium mobilization in vitro assay; differentiated IMR32 cells, 5 μM nitrendipine, 90 mM KCl
T1 construct: endogenous in cells; host or cells: IMR32 cells (ATCC), differentiated with dibutyryl cAMP and bromodeoxyuridine
Procedure: Cell maintenance and differentiation. Unless noted otherwise, cell culture reagents were purchased from Mediatech of Herndon, Md. IMR32 cells (American Type Culture Collection, ATCC, Manassas, Va.) were routinely cultured in growth medium consisting of minimum essential medium containing 10% fetal bovine serum (FBS, Hyclone, Logan, Utah), 100 U/mL penicillin, 100 μg/mL streptomycin, 2 mM L-glutamine, 1 mM sodium pyruvate, and 1×MEM non-essential amino acids. 80-90% confluent flasks of cells were differentiated using the following differentiation medium: Growth medium plus 1 mM dibutyryl cyclic AMP (Sigma, St. Louis, Mo.), and 2.5 μM bromodeoxyuridine (Sigma). Cells were differentiated for 8 days by replacing differentiation medium every 2-3 days.
FLIPR Calcium Mobilization Assay for N-type Calcium Channel. One day prior to performing this assay, differentiated IMR32 cells were treated with 1× CellStripper, and seeded on poly-D-lysine-coated 96-well clear-bottom black plates (Becton Dickinson, Franklin Lakes, N.J.) at 200,000 cells/well. On the day of the assay, the cell plates were washed with IMR32 buffer (127 mM NaCl, 1 mM KCl, 2 mM MgCl2, 700 μM NaH2PO4, 5 mM CaCl2, 5 mM NaHCO3, 8 mM HEPES, 10 mM glucose, pH 7.4), then pre-stimulated with KCl and loaded as follows: 0.05 mL of IMR32 buffer, 0.05 mL of each compound tested diluted in IMR32 buffer containing 20 μM nitrendipine (Sigma), and 0.1 mL KCl dissolved in IMR32 buffer, plus Fluo-4 were added (3 μM final concentration, Molecular Probes, Eugene, Oreg.). Final test compound concentrations ranged from about 846 pM to about 17 μM, final nitrendipine concentration was 5 μM, and final KCl concentration was 90 mM. After 1 hour, the cells were washed twice with 0.05 mL of each compound tested in nitrendipine-containing IMR32 buffer (no KCl or Fluo-4), and then replaced with 0.1 mL of each compound tested in nitrendipine-containing IMR32 buffer. Plates were then transferred to a Fluorimetric Imaging Plate Reader (FLIPR^96, Molecular Devices, Inc., Sunnyvale, Calif.) for assay. The FLIPR measured basal Fluo-4 fluorescence for 315 seconds (i.e., 5 minutes and 15 seconds), then added 0.1 mL KCl agonist dissolved in IMR32 buffer and measured fluorescence for another 45 seconds. Final test compound concentrations on the cells after FLIPR read ranged from about 846 pM to about 17 μM, final nitrendipine concentration was 5 μM, and final KCl concentration was 90 mM. Data were collected over the entire time course and analyzed using Excel, Graph Pad Prism (version 3.02, Graph Pad, San Diego, Calif.), or an in-house non-linear regression analysis software.

[2] = molecular target: T2, recombinant rat L-type calcium channel (LTCC) subunits (α1c, α2δ, and β1) (Rattus norvegicus, UniProt P22002); experiment: FLIPR calcium mobilization assay for L-type calcium channel; format: cell-based; details: calcium mobilization in vitro assay; HEK293 cells stably expressing rat LTCC subunits, 90 mM KCl
T2 construct: expressed in transfected cells; α1c in pcDNA6.2DEST, β1 in pcDNA3.2DEST, α2δ in pcDNA3.1-Zeo
T2 sequence (P22002 whole entry): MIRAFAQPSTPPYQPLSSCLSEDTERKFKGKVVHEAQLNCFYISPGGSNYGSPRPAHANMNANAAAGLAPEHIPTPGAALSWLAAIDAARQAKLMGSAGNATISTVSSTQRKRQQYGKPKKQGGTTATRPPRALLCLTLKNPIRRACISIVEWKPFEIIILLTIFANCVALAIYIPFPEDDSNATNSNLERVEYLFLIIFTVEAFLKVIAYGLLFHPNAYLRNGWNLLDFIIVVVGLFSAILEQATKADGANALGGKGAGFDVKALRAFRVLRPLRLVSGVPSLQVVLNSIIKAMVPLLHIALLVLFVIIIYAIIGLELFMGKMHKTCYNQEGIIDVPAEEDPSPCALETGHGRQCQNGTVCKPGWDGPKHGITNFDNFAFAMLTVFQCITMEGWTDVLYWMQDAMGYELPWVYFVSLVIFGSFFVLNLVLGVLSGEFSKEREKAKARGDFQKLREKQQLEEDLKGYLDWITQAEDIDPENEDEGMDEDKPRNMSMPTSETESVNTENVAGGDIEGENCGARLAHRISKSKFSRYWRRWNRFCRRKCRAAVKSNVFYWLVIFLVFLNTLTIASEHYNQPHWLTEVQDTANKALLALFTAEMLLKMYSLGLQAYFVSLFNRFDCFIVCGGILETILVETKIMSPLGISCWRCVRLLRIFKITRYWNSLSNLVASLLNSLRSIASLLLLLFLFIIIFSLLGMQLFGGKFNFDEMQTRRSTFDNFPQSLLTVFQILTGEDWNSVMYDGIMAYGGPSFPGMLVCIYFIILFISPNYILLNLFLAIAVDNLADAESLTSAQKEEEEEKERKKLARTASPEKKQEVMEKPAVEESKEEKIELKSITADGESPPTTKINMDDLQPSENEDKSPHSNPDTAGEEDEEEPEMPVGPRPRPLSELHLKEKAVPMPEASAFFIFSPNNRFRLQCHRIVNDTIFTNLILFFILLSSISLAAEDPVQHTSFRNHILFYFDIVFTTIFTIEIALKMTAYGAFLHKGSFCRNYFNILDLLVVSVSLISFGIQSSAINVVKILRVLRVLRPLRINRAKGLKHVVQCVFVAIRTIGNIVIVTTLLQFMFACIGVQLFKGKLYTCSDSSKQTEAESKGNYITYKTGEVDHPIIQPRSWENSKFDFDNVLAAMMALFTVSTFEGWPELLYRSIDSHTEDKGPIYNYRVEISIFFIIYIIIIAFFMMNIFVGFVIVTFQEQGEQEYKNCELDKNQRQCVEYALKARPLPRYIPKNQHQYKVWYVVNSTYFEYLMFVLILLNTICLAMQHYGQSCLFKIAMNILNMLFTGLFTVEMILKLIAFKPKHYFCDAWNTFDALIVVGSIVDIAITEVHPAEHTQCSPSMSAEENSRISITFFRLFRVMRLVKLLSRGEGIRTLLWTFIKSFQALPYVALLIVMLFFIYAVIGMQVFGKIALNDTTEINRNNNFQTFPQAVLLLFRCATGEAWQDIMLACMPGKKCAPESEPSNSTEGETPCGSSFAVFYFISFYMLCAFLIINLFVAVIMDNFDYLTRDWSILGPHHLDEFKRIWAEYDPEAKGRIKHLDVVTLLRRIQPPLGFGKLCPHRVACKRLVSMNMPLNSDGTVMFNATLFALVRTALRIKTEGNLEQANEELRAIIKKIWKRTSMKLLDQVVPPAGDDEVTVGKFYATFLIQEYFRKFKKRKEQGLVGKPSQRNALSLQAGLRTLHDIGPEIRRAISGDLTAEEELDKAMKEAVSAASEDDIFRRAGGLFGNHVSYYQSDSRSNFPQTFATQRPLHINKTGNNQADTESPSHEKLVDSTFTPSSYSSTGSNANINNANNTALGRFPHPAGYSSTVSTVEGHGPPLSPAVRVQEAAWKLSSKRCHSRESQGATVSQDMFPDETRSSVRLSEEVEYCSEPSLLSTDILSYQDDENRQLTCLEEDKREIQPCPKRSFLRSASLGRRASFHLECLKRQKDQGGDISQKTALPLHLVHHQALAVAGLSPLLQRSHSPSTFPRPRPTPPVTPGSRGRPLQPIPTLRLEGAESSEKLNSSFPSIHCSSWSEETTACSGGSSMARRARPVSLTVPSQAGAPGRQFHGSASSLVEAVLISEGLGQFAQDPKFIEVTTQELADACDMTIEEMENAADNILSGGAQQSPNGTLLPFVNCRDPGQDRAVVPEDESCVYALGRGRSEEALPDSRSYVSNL
T2 sequence (P54290 25-944 partner): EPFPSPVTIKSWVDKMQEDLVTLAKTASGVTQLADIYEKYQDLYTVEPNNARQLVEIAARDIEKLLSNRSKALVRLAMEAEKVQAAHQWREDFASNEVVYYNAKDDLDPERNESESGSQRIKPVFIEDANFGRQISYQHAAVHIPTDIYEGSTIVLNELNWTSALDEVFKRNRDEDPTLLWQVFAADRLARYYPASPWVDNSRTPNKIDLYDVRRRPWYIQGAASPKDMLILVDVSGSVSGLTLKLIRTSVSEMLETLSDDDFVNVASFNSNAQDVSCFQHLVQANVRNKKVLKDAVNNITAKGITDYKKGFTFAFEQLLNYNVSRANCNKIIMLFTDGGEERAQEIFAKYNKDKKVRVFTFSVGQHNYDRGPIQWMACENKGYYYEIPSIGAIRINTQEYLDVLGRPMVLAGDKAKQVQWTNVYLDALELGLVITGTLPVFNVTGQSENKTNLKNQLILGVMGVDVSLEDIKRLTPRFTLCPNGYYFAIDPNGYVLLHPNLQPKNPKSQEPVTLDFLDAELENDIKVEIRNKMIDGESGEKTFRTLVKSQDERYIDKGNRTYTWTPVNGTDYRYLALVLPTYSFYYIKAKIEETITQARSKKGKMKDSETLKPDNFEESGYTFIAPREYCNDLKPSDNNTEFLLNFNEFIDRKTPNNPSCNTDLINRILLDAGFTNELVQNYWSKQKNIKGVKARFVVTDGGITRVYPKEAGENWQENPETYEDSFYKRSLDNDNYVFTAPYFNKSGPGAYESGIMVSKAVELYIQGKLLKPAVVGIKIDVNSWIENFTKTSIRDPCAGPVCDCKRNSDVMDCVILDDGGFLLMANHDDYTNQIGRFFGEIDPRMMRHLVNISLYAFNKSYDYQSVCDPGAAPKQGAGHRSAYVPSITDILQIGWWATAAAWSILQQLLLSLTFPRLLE
T2 sequence (P54290 945-1091 partner): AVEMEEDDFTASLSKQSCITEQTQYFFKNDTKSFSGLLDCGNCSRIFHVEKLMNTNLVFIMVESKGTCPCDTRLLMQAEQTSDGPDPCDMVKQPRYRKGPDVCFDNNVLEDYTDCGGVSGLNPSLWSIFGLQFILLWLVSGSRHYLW
T2 sequence (P54283 whole entry partner): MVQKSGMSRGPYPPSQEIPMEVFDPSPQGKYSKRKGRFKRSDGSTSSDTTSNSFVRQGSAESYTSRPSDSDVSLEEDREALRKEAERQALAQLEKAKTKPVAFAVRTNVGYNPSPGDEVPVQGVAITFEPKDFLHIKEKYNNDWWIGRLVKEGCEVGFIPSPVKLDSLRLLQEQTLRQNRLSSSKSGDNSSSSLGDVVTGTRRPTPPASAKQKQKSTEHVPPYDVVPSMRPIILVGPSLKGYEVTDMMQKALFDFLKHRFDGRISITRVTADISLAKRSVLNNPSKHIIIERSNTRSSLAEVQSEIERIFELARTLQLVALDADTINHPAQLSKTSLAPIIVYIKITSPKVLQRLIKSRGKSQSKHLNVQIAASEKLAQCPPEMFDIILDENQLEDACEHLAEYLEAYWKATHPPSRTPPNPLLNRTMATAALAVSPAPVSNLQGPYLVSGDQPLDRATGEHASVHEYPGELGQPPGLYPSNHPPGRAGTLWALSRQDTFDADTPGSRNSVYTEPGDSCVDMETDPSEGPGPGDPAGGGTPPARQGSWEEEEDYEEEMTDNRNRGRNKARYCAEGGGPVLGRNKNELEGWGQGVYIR
Procedure: Recombinant human embryonal kidney cells (HEK293, ATCC) stably transfected with either N-type calcium channel (NTCC) subunits (α1b (SEQ ID NOs: 13 to 15), α2δ (SEQ ID Nos: 16, 17), and β3 (SEQ ID NOs:18 to 20)) or L-type calcium channel (LTCC) subunits (α1c (SEQ ID NOs:21, 22), α2δ, and β1 (SEQ ID NOs:23 to 25)) were routinely cultured in growth medium consisting of Dulbecco's Modified Eagles Medium containing 10% FBS, 100 U/mL penicillin, 100 μg/mL streptomycin, 4 mM L-glutamine, 500 μg/mL geneticin (G418), 20 μg/mL Blasticidin S (InVivogen, San Diego, Calif.) and 500 μg/mL zeocin (InVivogen).
FLIPR Calcium Mobilization Assay for L-type Calcium Channel. One day prior to performing this assay, HEK293 cells stably expressing recombinant rat L-type calcium channel (LTCC) subunits (α1c, α2δ, and β1) were trypsinized, then seeded on poly-D-lysine-coated 96-well clear-bottom black plates (Becton Dickinson, Franklin Lakes, N.J.) at 75,000 cells/well. On the day of the assay, the plates were washed with LTCC wash buffer (127 mM NaCl, 2 mM MgCl2, 700 μM NaH2PO4, 5 mM CaCl2, 5 mM NaHCO3, 8 mM HEPES, 10 mM glucose, pH 7.4), then loaded with 0.1 mL of LTCC wash buffer containing Fluo-4 (3 μM final concentration, Molecular Probes, Eugene, Oreg.). After 1 hour, the cells were washed with 0.1 mL LTCC wash buffer and resuspended in 0.05 mL LTCC assay buffer (same composition as LTCC wash buffer). Plates were then transferred to a FLIPR^96 for assay. The FLIPR measured basal Fluo-4 fluorescence for 15 seconds, then added 0.05 mL of each compound tested diluted in LTCC assay buffer at final concentrations ranging from about 846 pM to about […]. Fluo-4 fluorescence was then measured for 5 minutes. 0.1 mL KCl agonist dissolved in LTCC assay buffer was then added to the cells to produce a final concentration of 90 mM KCl, and fluorescence was measured for another 45 seconds. Data were collected over the entire time course and analyzed using Excel, Graph Pad Prism, or an in-house regression analysis software.
L-type Recombinant Cell Line Development. L-type calcium channel expressing HEK-293 cells were created in two stages. Stage 1 was created as follows. The rat α1c, and β1 cDNA expression constructs (2.5 μg each) were co-transfected into human embryonic kidney (HEK-293) cells by Lipofectamine Plus reagent (Invitrogen), as per manufacturer's instructions. 24 hours later, cells were split in limiting dilution into multiple 96-well plates in selection media containing 20 μg/mL blasticidin and 500 μg/mL geneticin, and incubated for 3 weeks at 37° C., 5% CO2, 95% humidity. Plates containing ≦1 clone per well were cultured until wells positive for single clones were confluent. Individual clones were then arrayed into columns of a destination 96-well plate, and partly split into 6-well plates for culture maintenance. Array plates were washed once with LTCC wash (or assay) buffer and cells loaded for 1 hour with 0.1 mL of LTCC buffer containing Fluo-4 (3 μM final concentration, Molecular Probes). Then they were washed twice with 0.1 mL of LTCC buffer, and replaced with 0.1 mL LTCC buffer. Plates were then transferred to a FLIPR^96 for assay. The FLIPR measured basal Fluo-4 fluorescence for 315 seconds, then added 0.1 mL KCl agonist dissolved in LTCC buffer and measured fluorescence for another 45 seconds. Final KCl concentration was 90 mM. Data were collected over the entire time course and analyzed using Excel, Graph Pad Prism, or Activity Base software. The clone with the greatest signal-to-noise ratio, best stability of response with passage number, and best adhesion to PDL precoated plates (Becton Dickinson) was expanded, characterized and used for stage 2 cell line development.
Stage 2 of L-type cell line development was carried out as follows. The rat α2δ cDNA expression construct (5 μg each) was transfected into the stage 1 L-type clonal cell line by Lipofectamine Plus reagent (Invitrogen), as per manufacturer's instructions. […]

Row | IC50 [1] | IC50 [2] | SMILES
1 | 1.01 µM | – | CCOC(=O)C(C)N1CCC(N(C(C)C)S(=O)(=O)c2cccc(C(F)(F)F)c2)CC1 (centres unmarked) [Compound 8a, 2-[4-[Isopropyl-(3-trifluoromethyl-benzenesulfonyl)amino]piperidin-1-yl}propionic acid ethyl ester]
2 | 0.62 µM | > 20 µM | CCOC(=O)C(C)(C)N1CCC(N(C(C)C)S(=O)(=O)c2cccc(C(F)(F)F)c2)CC1 [Compound 8b, 2-{4-[Isopropyl-(3-trifluoromethyl-benzenesulfonyl)amino]piperidin-1-yl}-2-methylpropionic acid ethyl ester]
3 | 0.6 µM | > 20 µM | O=C(CN1CCC(N(C2CC2)S(=O)(=O)c2cccc(C(F)(F)F)c2)CC1)Oc1ccc(Cl)cc1 [Compound 8c, {-4-[Cyclopropyl-(3-trifluoromethyl-benzenesulfonyl)amino]piperidin-1-yl}acetic acid 4-chlorophenyl ester]
4 | 0.9 µM | > 20 µM | COC(=O)c1ccccc1N1CCC(N(C2CC2)S(=O)(=O)c2cccc(C(F)(F)F)c2)CC1 [Compound 10a, 2-{4-[Cyclopropyl-(3-trifluoromethyl-benzenesulfonyl)amino]piperidin-1-yl}benzoic acid methyl ester]
5 | 1.44 µM | – | CCOC(=O)c1cccnc1N1CCC(N(C2CC2)S(=O)(=O)c2cccc(C(F)(F)F)c2)CC1 [Compound 10b, 4-[Cyclopropyl-(3-trifluoromethyl-benzenesulfonyl)amino]-3,4,5,6-tetrahydro-2H-[1,2′]-bipyridinyl-3′-carboxylic acid ethyl ester]
6 | 1.07 µM | – | CCOC(=O)c1cc(F)cc(N2CCC(N(C3CC3)S(=O)(=O)c3cccc(C(F)(F)F)c3)CC2)c1 [Compound 10c, 3-{-4-[Cyclopropyl-(3-trifluoromethyl-benzenesulfonyl)amino]piperidin-1-yl}-5-fluorobenzoic acid ethyl ester]
7 | 1.31 µM | – | CCOC(=O)c1ccc(N2CCC(N(C3CC3)S(=O)(=O)c3cccc(C(F)(F)F)c3)CC2)cc1 [Compound 10d, 4-{-4-[Cyclopropyl-(3-trifluoromethyl-benzenesulfonyl)amino]piperidin-1-yl}benzoic acid ethyl ester]
8 | 6.27 µM | – | O=S(=O)(c1cccc(C(F)(F)F)c1)N(C1CC1)C1CCN(c2cc(C(F)(F)F)cc(C(F)(F)F)c2)CC1 [Compound 10e, N-[1-(3,5-Bis-(trifluoromethyl)phenyl)piperidin-1-yl]-N-cyclopropyl-3-trifluoromethylbenzenesulfonamide]
9 | 0.38 µM | 6.74 µM | O=C(NCCN1CCC(N(C2CC2)S(=O)(=O)c2cccc(C(F)(F)F)c2)CC1)c1ccc(F)cc1 [Compound 14a, N-(2-{-4-[Cyclopropyl-(3-trifluoromethylbenzenesulfonyl)amino]piperidin-1-yl}ethyl)-4-fluorobenzamide]
10 | 1.13 µM | – | O=C(NCCN1CCC(N(C2CC2)S(=O)(=O)c2cccc(C(F)(F)F)c2)CC1)c1cc(C(F)(F)F)cc(C(F)(F)F)c1 [Compound 14b, N-(2-{4-[Cyclopropyl-(3-trifluoromethylbenzenesulfonyl)amino]piperidin-1-yl}ethyl)-3,5-bis(trifluoromethyl)phenylbenzamide]
11 | 0.77 µM | > 20 µM | CC(C)N(C1CCN(CCC(=O)N2CCCCC2)CC1)S(=O)(=O)c1cccc(C(F)(F)F)c1 [Compound 18, N-Isopropyl-N-[1-(3-oxo-3-piperidin-1-yl-propyl)-piperidin-4-yl]-3-trifluoromethyl-benzenesulfonamide]
12 | 1.6 µM | – | CC(C)(C(=O)Nc1ccc(F)cc1Cl)N1CCC(N(C2CC2)S(=O)(=O)c2cccc(C(F)(F)F)c2)CC1 [Compound 21a, N-(2-Chloro-4-fluorophenyl)-2-{-4-[cyclopropyl-(3-trifluoromethyl-benzenesulfonyl)-amino]-piperidin-1-yl}-isobutyramide]
13 | 0.6 µM | > 20 µM | CC(C)(C(=O)Nc1ccc(F)cc1)N1CCC(N(C2CC2)S(=O)(=O)c2cccc(C(F)(F)F)c2)CC1 [Compound 21b, 2-{-4-[Cyclopropyl-(3-trifluoromethyl-benzenesulfonyl)-amino]-piperidin-1-yl}-N-(4-fluoro-phenyl)-isobutyramide]
14 | 0.24 µM | 8.45 µM | CC(CC(=O)NC(C)(C)C)N1CCC(N(C(C)C)S(=O)(=O)c2cccc(C(F)(F)F)c2)CC1 (centres unmarked) [Compound 25, 3-{4-[Isopropyl-(3-trifluoromethyl-benzenesulfonyl)amino]piperidin-1-yl}-N-tert-butyl-butyramide]
15 | 1.61 µM | – | CC(C)N(C1CCN(CC(=O)N2CCCC2)CC1)S(=O)(=O)c1cccc(C(F)(F)F)c1 [Compound 31b, N-Isopropyl-N-[1-(2-oxo-2-pyrrolidin-1-yl-ethyl)-piperidin-4-yl]-3-trifluoromethyl-benzenesulfonamide]
16 | 3.2 µM | – | CC(C)N(C1CCN(CC(=O)NC2CCOC2)CC1)S(=O)(=O)c1cccc(C(F)(F)F)c1 (centres unmarked) [Compound 31e, 2-{4-[Isopropyl-(3-trifluoromethyl-benzenesulfonyl)-amino]-piperidin-1-yl}-N-(tetrahydrofuran-3-yl)-acetamide]

Reference: patent US8765736B2, “Benzenesulfonamide compounds and the use thereof” (Purdue Pharma L.P., priority 2007, dated 2014)
